Results from patent publication US20240366589A1, “NHE3-BINDING COMPOUNDS AND METHODS FOR INHIBITING PHOSPHATE TRANSPORT” (Ardelyx, Inc., priority 2013, published 2024).

Assays:
[1] = molecular target: T1, Rat NHE3 (Rattus norvegicus, UniProt P26433); assay: Cell-based NHE3 activity under prompt conditions (OK cells, BCECF pH recovery), rat NHE3; conditions: Table E5; 001 free base, 002-005 dihydrochloride salt
T1 construct: expressed in transfected cells; host or cells: Opossum kidney (OK) cells (ATCC), electroporation
How it was run: (§1)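 Opossum kidney cells transfected with rat or human NHE3 underwent ammonium prepulse (20 mM NH4Cl, pH 7.4, 30 min) then 10 min in Na+-free buffer, room temperature.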

[2] = molecular target: T2, Human NHE3 (Homo sapiens, UniProt P48764); assay: Cell-based NHE3 activity under prompt conditions (OK cells, BCECF pH recovery), human NHE3; conditions: for Human NHE3 pIC50 Prompt: Table E5, 001 free base, 002-005 dihydrochloride salt; for pIC50 Prompt: Table E6, NHE3 species not stated
T2 construct: expressed in transfected cells; host or cells: Opossum kidney (OK) cells (ATCC), electroporation
T2 sequence (P48764 26-834): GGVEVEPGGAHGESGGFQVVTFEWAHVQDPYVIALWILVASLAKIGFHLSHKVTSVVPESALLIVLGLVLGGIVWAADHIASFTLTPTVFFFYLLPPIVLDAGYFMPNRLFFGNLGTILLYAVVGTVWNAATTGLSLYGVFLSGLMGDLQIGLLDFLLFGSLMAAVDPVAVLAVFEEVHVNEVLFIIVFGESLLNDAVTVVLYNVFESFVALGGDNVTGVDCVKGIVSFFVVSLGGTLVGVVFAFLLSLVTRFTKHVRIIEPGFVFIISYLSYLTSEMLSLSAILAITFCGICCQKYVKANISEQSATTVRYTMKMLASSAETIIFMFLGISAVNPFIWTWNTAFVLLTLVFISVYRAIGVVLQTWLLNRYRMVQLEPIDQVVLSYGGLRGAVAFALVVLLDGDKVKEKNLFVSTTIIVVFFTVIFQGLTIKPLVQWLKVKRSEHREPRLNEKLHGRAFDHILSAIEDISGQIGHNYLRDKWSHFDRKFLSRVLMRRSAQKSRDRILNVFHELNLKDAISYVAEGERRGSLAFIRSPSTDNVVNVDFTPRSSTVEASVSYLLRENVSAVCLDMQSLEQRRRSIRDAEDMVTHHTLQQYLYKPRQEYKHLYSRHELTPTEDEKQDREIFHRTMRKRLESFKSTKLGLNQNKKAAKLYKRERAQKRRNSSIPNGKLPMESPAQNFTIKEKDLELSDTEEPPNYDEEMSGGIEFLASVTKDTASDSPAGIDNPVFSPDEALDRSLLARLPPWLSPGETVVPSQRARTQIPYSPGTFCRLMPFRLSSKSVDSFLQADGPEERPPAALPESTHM
How it was run: as §1

[3] = molecular target: T2, Human NHE3; assay: Cell-based NHE3 activity under persistent conditions (60 min incubation, washout), human NHE3; conditions: Table E5; dihydrochloride salt
[4] = molecular target: T1, Rat NHE3; assay: Cell-based NHE3 activity under persistent conditions (60 min incubation, washout), rat NHE3; conditions: Table E5; 40 min after compound washout; dihydrochloride salt
Description: Cell-based activity of NHE3 Activity under ‘Persistent’ Conditions. The ability of compounds to inhibit Rat NHE3-mediated Na^+-dependent H^+ antiport after application and washout was measured using a modification of the pH sensitive dye method described above. Opossum kidney (OK) cells were obtained from the ATCC and propagated per their instructions. The rat NHE3 gene was introduced into OK cells via electroporation, and cells were seeded into 96 well plates and grown overnight. Medium was aspirated from the wells, cells were washed twice with NaCl-HEPES buffer (100 mM NaCl, 50 mM HEPES, 10 mM glucose, 5 mM KCl, 2 mM CaCl2, 1 mM MgCl2, pH 7.4), then overlayed with NaCl-HEPES buffer containing 0-30 μM test compound.
After a 60 min incubation, the test drug containing buffer was aspirated from the cells, cells were washed twice with NaCl-HEPES buffer without drug, then incubated for 30 min at room temperature with NH4Cl-HEPES buffer (20 mM NH4Cl, 80 mM NaCl, 50 mM HEPES, 5 mM KCl, 2 mM CaCl2, 1 mM MgCl2, pH 7.4) containing 5 μM BCECF-AM. Cells were washed twice with Ammonium free, Na^+-free HEPES (100 mM choline, 50 mM HEPES, 10 mM glucose, 5 mM KCl, 2 mM CaCl2, 1 mM MgCl2, pH 7.4) and incubated in the same buffer for 10 minutes at room temperature to lower intracellular pH. […]

T1 sequence (P26433 29-831): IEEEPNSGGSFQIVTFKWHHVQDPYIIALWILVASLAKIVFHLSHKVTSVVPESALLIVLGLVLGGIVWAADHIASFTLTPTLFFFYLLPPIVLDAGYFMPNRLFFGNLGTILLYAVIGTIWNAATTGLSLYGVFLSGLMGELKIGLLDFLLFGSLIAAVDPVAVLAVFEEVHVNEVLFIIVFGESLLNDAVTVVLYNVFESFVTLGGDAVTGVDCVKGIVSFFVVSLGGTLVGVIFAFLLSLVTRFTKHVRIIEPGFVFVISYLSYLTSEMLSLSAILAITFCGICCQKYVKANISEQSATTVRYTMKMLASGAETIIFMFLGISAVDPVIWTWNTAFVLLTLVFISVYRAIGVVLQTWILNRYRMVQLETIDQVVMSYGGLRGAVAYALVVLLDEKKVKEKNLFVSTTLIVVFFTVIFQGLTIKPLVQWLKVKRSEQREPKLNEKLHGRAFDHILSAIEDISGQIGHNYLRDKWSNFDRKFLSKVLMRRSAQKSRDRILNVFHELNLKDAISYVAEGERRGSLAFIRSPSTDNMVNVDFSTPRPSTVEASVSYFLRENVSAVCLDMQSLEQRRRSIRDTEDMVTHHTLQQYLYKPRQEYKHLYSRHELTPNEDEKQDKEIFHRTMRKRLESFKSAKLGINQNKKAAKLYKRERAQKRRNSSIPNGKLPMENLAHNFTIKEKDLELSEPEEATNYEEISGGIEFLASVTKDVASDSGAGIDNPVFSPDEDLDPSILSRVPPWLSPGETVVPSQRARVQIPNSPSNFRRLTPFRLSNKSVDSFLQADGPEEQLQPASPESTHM

Row | SMILES | Rat NHE3 pIC50 Prompt [1] | Human NHE3 pIC50 Prompt [2] | pIC50 Prompt [2] | Human NHE3 pIC50 Persistent [3] | Rat NHE3 pIC50 Persistent [4]
1 | CN1Cc2c(Cl)cc(Cl)cc2[C@H](c2cccc(S(=O)(=O)NCCOCCOCCNC(=O)NCCCCNC(=O)NCCOCCOCCNS(=O)(=O)c3cccc([C@@H]4CN(C)Cc5c(Cl)cc(Cl)cc54)c3)c2)C1 [Cpd 002] | 8 | 8 | 8 | 8.2 | 8.4
2 | CN1Cc2c(Cl)cc(Cl)cc2[C@@H](c2cccc(S(=O)(=O)NCCOCCOCCNC(=O)NCCCCNC(=O)NCCOCCOCCNS(=O)(=O)c3cccc([C@H]4CN(C)Cc5c(Cl)cc(Cl)cc54)c3)c2)C1 [Cpd 004] | 7.3 | 7.3 | 7.3 | 5.6 | 5.6
